Measurements reported in PubChem BioAssay AID2060611 (Molecular Pharmacology Branch, DTP, NCI, 2025).
Where “and” joins values, the source holds several entries; their conditions need not be identical. Identical values can stand only once.

Tested on: 628569-122-R-J1-PDC complex spheroid viability
Assay: Anticancer human tumor 628569-122-R-J1-PDC patient-derived head and neck squamous carcinoma cell line growth inhibition [CLK]
Conditions: for viability, T/C: stronger effect = lower value
Text: A high-throughput screen of multi-cell type tumor spheroids was designed to identify active combinations of […] and targeted small molecules. Complex spheroids include a stromal component modeled by human endothelial cells (HUVEC) and fibroblasts modeled by human mesenchymal stem cells (MSCs). The concentration ranges selected for each drug and investigational agent were based upon clinically achievable concentrations if the clinical Cmax of the agent was known.
Compounds. The drugs and investigational agents: cirtuvivint (SM08502; NSC835563), CC-671 (NSC850746), vemurafenib (NSC761431), tapotoclax (NSC804041), sotorasib (NSC818433), adagrasib (NSC831453), MRTX-1133 (NSC836407), BAY2416964 (NSC825713), copanlisib (NSC816437), inavolisib (NSC800729), abemaciclib (NSC768073), osimertinib (NSC779217), entinostat (NSC756642), eltanexor (KPT-8602, NSC794443), venetoclax (NSC766270), ceralasertib (NSC777638), bortezomib (NSC756655), olaparib (NSC753686), talazoparib (NSC767125), alisertib (NSC759677), peposertib (NSC802822), gemcitabine (NSC613327), 5-fluorouracil (NSC19893), SN-38 (NSC673596), oxaliplatin (NSC266046), paclitaxel (NSC125973), and doxorubicin (NSC123127), were obtained from the National Cancer Institute (NCI) Developmental Therapeutics Program Chemical Repository. The FDA-approved anticancer drug set is available from the Developmental Therapeutics Program at https://dtp.cancer.gov/organization/dscb/obtaining/available plates.htm. […] The stock solutions were prepared in dimethyl sulfoxide (DMSO, Sigma-Aldrich, St. Louis, MO, cat. D2650), except for the platinum complexes which were prepared in saline (Quality Biological, Gaithersburg, MD, cat. 114-055-101), at 800-fold the tested concentration and stored at -70 degrees C prior to their use. All drugs and investigational agents were tested over a range starting from a high concentration at or near the clinical Cmax and decreasing in half-log increments. If the clinical Cmax for an agent had not been determined, the highest concentration tested was 10 microM.
Cell Culture. All cells were maintained in an incubator at 37 degrees C and 5% CO2 with 95% humidity. The PDC lines were cultured according to standard operating procedures established by the NCI PDMR. Briefly, all PDCs were thawed and cultured in Matrigel-coated flasks prepared with a working solution of 1X Ham's F-12 nutrient mix, without supplementation (Invitrogen, Waltham, MA, cat. 11765054), 100 U/mL penicillin-streptomycin (Invitrogen, cat. 15140122), and 2.5% Matrigel (Corning Inc., Corning, NY, cat. 354248) for the first three passages. The 947758-054-R-J2-PDC line was cultured in 6B/Colon 1A media, which includes advanced DMEM/F-12 (Thermo Fisher Scientific, cat. 12634028), 10 mM HEPES (Thermo Fisher Scientific, cat. 15630080), 1X GlutaMAX supplement (Thermo Fisher Scientific, cat. 35050061), 0.1 mg/mL primocin (InvivoGen, cat. ant-pm-2), 10% defined fetal bovine serum, heat inactivated (HyClone Laboratories Inc., cat. SH30070.03HI), 1.25 mM N-Acetyl-L-cysteine (Sigma-Aldrich, cat. A9165), 10 mM nicotinamide (Sigma-Aldrich, cat. N0636), 1X B-27 supplement (Thermo Fisher Scientific, cat. 17504044), 1X N-2 supplement (Thermo Fisher Scientific, cat. 17502048), and 10 microM Y-27632 dihydrochloride (Tocris Bioscience, cat. 1254). The 876862-298-R-J1-PDC was cultured in 6E media, which includes all 6B/Colon 1A media components plus 50% L-WRN conditioned media (ATCC, cat. CRL-3276), 50 ng/mL recombinant human EGF recombinant protein (hEGF; Thermo Fisher Scientific, cat. PHG0311), 10 ng/mL recombinant human fibroblast growth factor 10 (hGFG-10; PeproTech, cat. 100-26), 1 ng/mL recombinant human fibroblast growth factor 2 (hFGF-2; PeproTech, cat. 100-18B), and 1 µM prostaglandin E2 (PGE2; Tocris, cat. 2296). The 227483-062-R1-J1-PDC line was cultured in Panc media, containing all 6E components except hFGF-2, with the addition of 500 nM SB-431542 (Selleckchem, cat. S1067) and 10 nM gastrin (Tocris, cat. 3006). […]

[1] = curve of first compound, second compound 0.0316 µM
[2] = curve of first compound, second compound 0.1 µM
[3] = curve of first compound, second compound 0.316 µM
[4] = curve of first compound, second compound 1 µM
[5] = curve of first compound, second compound 3.16 µM
[6] = curve of first compound, second compound 10 µM
[7] = second compound 0.0316 µM, first compound 0.0316 µM
[8] = second compound 0.0316 µM, first compound 0.1 µM
[9] = second compound 0.1 µM, first compound 0.0316 µM
[10] = second compound 0.1 µM, first compound 0.1 µM
[11] = second compound 0.316 µM, first compound 0.0316 µM
[12] = second compound 0.316 µM, first compound 0.1 µM
[13] = second compound 1 µM, first compound 0.0316 µM
[14] = second compound 1 µM, first compound 0.1 µM
[15] = second compound 3.16 µM, first compound 0.0316 µM
[16] = second compound 3.16 µM, first compound 0.1 µM
[17] = second compound 10 µM, first compound 0.0316 µM
[18] = second compound 10 µM, first compound 0.1 µM
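Note: spheroids exposed to agents for seven days before readout.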
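Throughout, for viability, T/C: 100% = DMSO vehicle control viability.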

CC1(C)CCC(CN2CCN(c3ccc(C(=O)NS(=O)(=O)c4ccc(NCC5CCOCC5)c([N+](=O)[O-])c4)c(Oc4cnc5[nH]ccc5c4)c3)CC2)=C(c2ccc(Cl)cc2)C1 + CNC(=O)c1ccc(Nc2nc(OC3CCCC3)c3c(-c4ccc5nc(C)oc5c4)c[nH]c3n2)c(OC)c1
IC50 [1]: > 10 µM | IC50 [2]: > 10 µM | IC50 [3]: > 10 µM | IC50 [4]: > 10 µM | IC50 [5]: < 0.0316 µM | IC50 [6]: 0.0802 µM | viability, T/C [7]: 124% | viability, T/C [8]: 102% | viability, T/C (second compound 0.0316 µM, first compound 0.316 µM): 96.6% | viability, T/C (second compound 0.0316 µM, first compound 1 µM): 94.7% | viability, T/C (second compound 0.0316 µM, first compound 3.16 µM): 111% | viability, T/C (second compound 0.0316 µM, first compound 10 µM): 75.4% | viability, T/C [9]: 65.9% | viability, T/C [10]: 55.9% | viability, T/C (second compound 0.1 µM, first compound 0.316 µM): 60.4% | viability, T/C (second compound 0.1 µM, first compound 1 µM): 57.5% | viability, T/C (second compound 0.1 µM, first compound 3.16 µM): 60.4% | viability, T/C (second compound 0.1 µM, first compound 10 µM): 63.4% | viability, T/C [11]: 52.7% | viability, T/C [12]: 51.8% | viability, T/C (second compound 0.316 µM, first compound 0.316 µM): 53.6% | viability, T/C (second compound 0.316 µM, first compound 1 µM): 57.9% | viability, T/C (second compound 0.316 µM, first compound 3.16 µM): 69.7% | viability, T/C (second compound 0.316 µM, first compound 10 µM): 51% | viability, T/C [13]: 48.1% | viability, T/C [14]: 51.4% | viability, T/C (second compound 1 µM, first compound 0.316 µM): 53.2% | viability, T/C (second compound 1 µM, first compound 1 µM): 59.6% | viability, T/C (second compound 1 µM, first compound 3.16 µM): 49.4% | viability, T/C (second compound 1 µM, first compound 10 µM): 53.6% | viability, T/C [15]: 46.1% | viability, T/C [16]: 48.4% | viability, T/C (second compound 3.16 µM, first compound 0.316 µM): 53.5% | viability, T/C (second compound 3.16 µM, first compound 1 µM): 51.4% | viability, T/C (second compound 3.16 µM, first compound 3.16 µM): 45.8% | viability, T/C (second compound 3.16 µM, first compound 10 µM): 41.2% | viability, T/C [17]: 59.9% | viability, T/C [18]: 48.7% | viability, T/C (second compound 10 µM, first compound 0.316 µM): 41.1% | viability, T/C (second compound 10 µM, first compound 1 µM): 43.5% | viability, T/C (second compound 10 µM, first compound 3.16 µM): 47.2% | viability, T/C (second compound 10 µM, first compound 10 µM): 38.6%

CC1COCCN1c1cc(C2(S(C)(=N)=O)CC2)nc(-c2ccnc3[nH]ccc23)n1 (centres undefined)
viability, T/C (compound 0.0316 µM): 106% and 94.9% | viability, T/C (compound 0.1 µM): 89.1% and 89.6% | viability, T/C (compound 0.316 µM): 102% and 68.9% | viability, T/C (compound 1 µM): 65.9% and 50.8% | viability, T/C (compound 3.16 µM): 42.5% and 40.7% | viability, T/C (compound 10 µM): 33.7% and 33.3% | IC50 (curve of compound): 1.93 µM and 1.08 µM

CNC(=O)c1ccc(Nc2nc(OC3CCCC3)c3c(-c4ccc5nc(C)oc5c4)c[nH]c3n2)c(OC)c1
viability, T/C (compound 0.0316 µM): 95.7% [middle of 12 runs] | viability, T/C (compound 0.1 µM): 60.6% [middle of 12 runs] | viability, T/C (compound 0.316 µM): 54.9% [middle of 12 runs] | viability, T/C (compound 1 µM): 44.6% [middle of 12 runs] | viability, T/C (compound 3.16 µM): 40.7% [middle of 12 runs] | viability, T/C (compound 10 µM): 41.4% [middle of 12 runs]

NC(=O)C(=Cn1cnc(-c2cc(C(F)(F)F)cc(C(F)(F)F)c2)n1)c1cncnc1
viability, T/C (compound 0.00949 µM): 71.1% and 74% | viability, T/C (compound 0.03 µM): 66.9% and 66.1% | viability, T/C (compound 0.0949 µM): 52.1% and 56.7% | viability, T/C (compound 0.3 µM): 63.8% and 49.3% | viability, T/C (compound 0.949 µM): 44.3% and 35.1% | viability, T/C (compound 3 µM): 41.7% and 33.4% | IC50 (curve of compound): 0.666 µM and 0.21 µM

Cn1ncnc1[C@H]1c2n[nH]c(=O)c3cc(F)cc(c23)N[C@@H]1c1ccc(F)cc1 + CN1CCN(c2cc(C(=O)Nc3cc4cc(-c5cnn(C)c5)ccc4cn3)ccn2)CC1
IC50 [1]: > 0.1 µM | IC50 [2]: 0.069 µM | IC50 [3]: < 0.000316 µM | IC50 [4]: < 0.000316 µM | IC50 [5]: < 0.000316 µM | IC50 [6]: < 0.000316 µM | viability, T/C (second compound 0.0316 µM, first compound 0.000316 µM): 91.6% | viability, T/C (second compound 0.0316 µM, first compound 0.001 µM): 98.2% | viability, T/C (second compound 0.0316 µM, first compound 0.00316 µM): 89.9% | viability, T/C (second compound 0.0316 µM, first compound 0.01 µM): 92.5% | viability, T/C [7]: 82.7% | viability, T/C [8]: 58.4% | viability, T/C (second compound 0.1 µM, first compound 0.000316 µM): 58.3% | viability, T/C (second compound 0.1 µM, first compound 0.001 µM): 68.8% | viability, T/C (second compound 0.1 µM, first compound 0.00316 µM): 69.9% | viability, T/C (second compound 0.1 µM, first compound 0.01 µM): 62.5% | viability, T/C [9]: 53.8% | viability, T/C [10]: 47.5% | viability, T/C (second compound 0.316 µM, first compound 0.000316 µM): 35.3% | viability, T/C (second compound 0.316 µM, first compound 0.001 µM): 31.6% | viability, T/C (second compound 0.316 µM, first compound 0.00316 µM): 33.2% | viability, T/C (second compound 0.316 µM, first compound 0.01 µM): 34.2% | viability, T/C [11]: 33% | viability, T/C [12]: 21.4% | viability, T/C (second compound 1 µM, first compound 0.000316 µM): 12.2% | viability, T/C (second compound 1 µM, first compound 0.001 µM): 4.22% | viability, T/C (second compound 1 µM, first compound 0.00316 µM): 4.14% | viability, T/C (second compound 1 µM, first compound 0.01 µM): 4.53% | viability, T/C [13]: 6.11% | viability, T/C [14]: 5.95% | viability, T/C (second compound 3.16 µM, first compound 0.000316 µM): 9.51% | viability, T/C (second compound 3.16 µM, first compound 0.001 µM): 3.28% | viability, T/C (second compound 3.16 µM, first compound 0.00316 µM): 6.67% | viability, T/C (second compound 3.16 µM, first compound 0.01 µM): 8.93% | viability, T/C [15]: 9.05% | viability, T/C [16]: 5.6% | viability, T/C (second compound 10 µM, first compound 0.000316 µM): 7.27% | viability, T/C (second compound 10 µM, first compound 0.001 µM): 1.99% | viability, T/C (second compound 10 µM, first compound 0.00316 µM): 2.02% | viability, T/C (second compound 10 µM, first compound 0.01 µM): 9.25% | viability, T/C [17]: 4.57% | viability, T/C [18]: 0.98%
